Read-outs that look alike come from different tables or passages of the source.
Tests used:
[1] = test system: maximal electroshock (MES)-induced seizures; experiment: Maximal electroshock seizure (MES) test, mice (ip); assay type: in vivo; conditions: for ED50: Mus musculus
Procedure: (§2) The maximal electroconvulsive shock (MES) test is regarded as a standard screen for anticonvulsant activity in terms of inhibition of seizure spread in generalized tonic-clonic seizures.
(§3) Groups of at least 8 male albino CF No. 1 mice or male albino Sprague-Dawley rats are treated with 10 mL/kg i.p. or 4 mL/kg p.o. of the test compound solution, respectively. The electrical stimulus in the MES test is 50 mA at 60 Hz for mice and 150 mA at 60 Hz for rats, both delivered for 0.2 sec. Abolition of the hind leg tonic extensor component of the seizure is used as the endpoint.

[2] = test system: maximal electroshock (MES)-induced seizures; experiment: Maximal electroshock seizure (MES) test, rat (po); assay type: in vivo; conditions: for ED50: Rattus norvegicus; for MES, ED50: rat, time (h) in brackets, Table 2
Procedure: as §2, §3

behavioral toxicity = experiment: Toxicity (behavioral toxicity), rat (po); assay type: in vivo
Procedure: (§1) Tests are conducted in groups of at least 8 mice or rats to determine the intrinsic neurotoxicity (neuromuscular impairment) after administration of the test compound by the route of administration to be used in the pharmacology studies. Neurotoxicity is determined in male CF No 1 mice by the rotarod procedure. Inability of the mouse to maintain its equilibrium in 3 trials during 1 min on this rotating rod (6 rpm) is used as an indication of such impairment. In Sprague-Dawley rats, minimal motor impairment (MMI) is determined by overt evidence of ataxia, abnormal gait, and stance.

6 Hz seizures = experiment: 6 Hz seizure model, mice (ip); assay type: in vivo; conditions: for 6 Hz, ED50: mice, ip; for seizure activity in the 6 Hz seizure model assay: comparable to or exceeding phenyloin and phenobarbital
[3] = test system: neurologic toxicity (rotorod test); experiment: Neurologic toxicity, rotorod test, mice (ip); assay type: in vivo
Procedure: as §1

[4] = test system: maximal electroshock (MES)-induced seizures; conditions: mice, ip; Table 3, Ref 30, 16, 32; cited from earlier work
[5] = test system: maximal electroshock (MES)-induced seizures; conditions: rat, po; Table 3, Ref 16, 32; cited from earlier work
[6] = mice, ip, 95% confidence intervals in parentheses, Table 1
[7] = mice, ip, time (h) in brackets, Table 3, NINDS ASP
[8] = read-out: MES, ED50, rat, po, Table 3
[9] = mice, ip, time (h) in brackets, Table 2, footnotes not given
[10] = mice, ip, time (h) in brackets, (X′—Y′—Z′ group)
[11] = mice, ip, time (h) in brackets, (terminal ring group)
[12] = behavioral toxicity, Table b607
[13] = behavioral toxicity, Table b608
[14] = rotorod test, time of peak effect (h) in brackets, Table 2

C#CCOC[C@@H](NC(C)=O)C(=O)NCc1ccc(N=C=S)cc1
melting point: 157 to 159 °C

CC(=O)NC(C)C(=O)NCc1ccccc1 (racemic) [(R,S)-4, reference compound]
MES, ED50 [1, 6]: 77 (67-89) mg/kg

CC(=O)NC(C(=O)NCc1ccccc1)c1ccco1 (racemic) [(R,S)-5, reference compound]
MES, ED50 [1, 6]: 10 (9.1-12) mg/kg

CC(=O)NC(C(=O)NCc1ccccc1)c1ccccc1 (racemic) [(R,S)-6, reference compound]
MES, ED50 [1, 6]: 32 mg/kg

CC(=O)NC(C(=O)NCc1ccc(OCc2cccc(F)c2)cc1)c1ccccn1 (racemic) [(R,S)-9, N-4-(3-Fluorobenzyloxy)benzyl 2-Acetamido-2-(pyridin-2-yl)acetamide]
MES, ED50 [1, 7]: 28 [0.5] (20-36) milligrams per kilogram | ED50 [2, 8]: > 30 mg/kg | Tox, TD50 (behavioral toxicity; behavioral toxicity, Table 3): >30 [4] milligrams per kilogram

CCOCC(NC(C)=O)C(=O)NCc1ccccc1 (racemic) [(R,S)-10, reference compound]
MES, ED50 ([1]; mice, ip): 17 mg/kg

C=CCOCC(NC(C)=O)C(=O)NCc1ccccc1 (racemic) [(R,S)-11, reference compound]
MES, ED50 ([1]; mice, ip): >30, <100 mg/kg

COC[C@@H](NC(C)=O)C(=O)NCc1ccc(N=[N+]=[N-])cc1 [(R)-5, (R)—N-(4-Azidobenzyl)-2-acetamido-3-methoxypropanamide, reference compound]
Tox, TD50 (behavioral toxicity; time (h) in brackets, Table 2): > 250 mg/kg

C#CCOC[C@@H](NC(C)=O)C(=O)NCc1ccccc1 [(R)-7, (R)—N-Benzyl-2-acetamido-3-(prop-2-ynyloxy)propanamide]
melting point: 149 °C

C#CCOC[C@@H](NC(C)=O)C(=O)NCc1ccc(N=[N+]=[N-])cc1 [(R)-8, (R)—N-(4-Azidobenzyl)-2-acetamido-3-(prop-2-ynyloxy)propanamide]
melting point: 135 to 136 °C

COC[C@@H](NC(C)=O)C(=O)NCc1ccc(C2(C(F)(F)F)N=N2)cc1 [(R)-9]
ED50 [1, 9]: 15.1 mg/kg

COC[C@@H](NC(C)=O)C(=O)NCc1ccc(OCc2cccc(F)c2)cc1 [(R)-10, (R)-2-Acetamido-N-(4-(3-fluorobenzyloxy)benzyl)-3-methoxypropanamide]
MES, ED50 [1, 10]: 13 [0.25] milligrams per kilogram | MES, ED50 [1, 11]: 13 [0.25] milligrams per kilogram | MES, ED50 [1, 7]: 13 [0.25] milligrams per kilogram | MES, ED50 [2]: 4.9 [1] | 6 Hz, ED50 (6 Hz seizures; Table 3): ~10 [0.25] milligrams per kilogram | 6 Hz, ED50 (6 Hz seizures; Table b607): ~10 [0.25] milligrams per kilogram | 6 Hz, ED50 (6 Hz seizures; Table b608): ~10 [0.25] milligrams per kilogram | Tox, TD50 ([3]; rotorod test, Table 3): 26 [0.5] milligrams per kilogram | Tox, TD50 ([3]; rotorod test, Table b607): 26 [0.5] milligrams per kilogram | Tox, TD50 ([3]; rotorod test, Table b608): 26 [0.5] milligrams per kilogram | Tox, TD50 (behavioral toxicity; behavioral toxicity, Table 3): >500 [0.5] milligrams per kilogram | Tox, TD50 (behavioral toxicity; [12]): >500 [0.5] milligrams per kilogram | Tox, TD50 (behavioral toxicity; [13]): >500 [0.5] milligrams per kilogram | Tox, TD50 (behavioral toxicity; time (h) in brackets, Table 2): > 280 mg/kg

COC[C@@H](NC(C)=O)C(=O)NCc1ccc(Oc2cccc(F)c2)cc1 [(R)-12, (R)—N-4′-((3″-Fluoro)phenoxy)benzyl 2-N-Acetamido-3-methoxypropionamide]
MES, ED50 [1, 10]: 5.5 [0.25] (3.2-6.3) milligrams per kilogram | ED50 ([2]; read-out: MES, ED50, rat, po): < 10 mg/kg | 6 Hz, ED50 (6 Hz seizures; Table b607): ~10 [0.5] milligrams per kilogram | Tox, TD50 ([3]; rotorod test, Table b607): 23 [0.25] (18-28) milligrams per kilogram | Tox, TD50 (behavioral toxicity; [12]): >10 [0.25-4.0] milligrams per kilogram

COC[C@@H](NC(C)=O)C(=O)NCc1ccc(CCc2cccc(F)c2)cc1 [(R)-13]
ED50 ([2]; read-out: MES, ED50, rat, po): < 30 mg/kg | Tox, TD50 (behavioral toxicity; [12]): >30 [1] milligrams per kilogram

COC[C@@H](NC(C)=O)C(=O)NCc1ccc(/C=C/c2cccc(F)c2)cc1 [(R)-14, (2-R,E)-N-4-(3-Fluorostyryl)benzyl 2-Acetamido-3-methoxypropionamide]
ED50 ([2]; read-out: MES, ED50, rat, po): ~30 mg/kg | 6 Hz, ED50 (6 Hz seizures; Table b607): <30 [0.25] milligrams per kilogram | Tox, TD50 (behavioral toxicity; [12]): >30 [0.25, 4.0] milligrams per kilogram

COC[C@@H](NC(C)=O)C(=O)NCc1ccc(COc2cccc(F)c2)cc1 [(R)-16, (R)—N-4-((3-Fluorophenoxy)methyl)benzyl 2-Acetamido-3-methoxypropionamide]
MES, ED50 [1, 10]: 5.9 [0.25] milligrams per kilogram | ED50 ([2]; read-out: MES, ED50, rat, po): 19 mg/kg | Tox, TD50 ([3]; rotorod test, Table b607): 10 [0.25] milligrams per kilogram | Tox, TD50 (behavioral toxicity; [12]): >400 [0.5] milligrams per kilogram

COC[C@@H](NC(C)=O)C(=O)NCc1ccc(COCc2cccc(F)c2)cc1 [(R)-18, (R)—N-4-(((3-Fluoro)benzyloxy)methyl)benzyl 2-Acetamido-3-methoxypropionamide]
melting point: 140 to 142 °C

COC[C@@H](NC(C)=O)C(=O)NCc1ccc(OCc2ccccc2)cc1 [(R)-20, (R)—N-4′-(Benzyloxy)benzyl 2-N-Acetamido-3-methoxypropionamide]
MES, ED50 [1, 11]: 5.8 [0.25] (4.4-7.2) milligrams per kilogram | Tox, TD50 ([3]; rotorod test, Table b608): 22 [0.25] (19- milligrams per kilogram | Tox, TD50 (behavioral toxicity; [13]): >250 [1.0] milligrams per kilogram

COC[C@@H](NC(C)=O)C(=O)NCc1ccc(OCc2ccccc2F)cc1 [(R)-21, (R)—N-4-(2-Fluorobenzyloxy)benzyl 2-Acetamido-3-methoxypropionamide]
MES, ED50 [1, 11]: 6.7 [0.25] (4.8-9.1) milligrams per kilogram | Tox, TD50 ([3]; rotorod test, Table b608): 37 [0.5] (29-48) milligrams per kilogram | Tox, TD50 (behavioral toxicity; [13]): >500 milligrams per kilogram

COC[C@@H](NC(C)=O)C(=O)NCc1ccc(OCc2ccc(F)cc2)cc1 [(R)-22, (R)—N-4-(4-Fluorobenzyloxy)benzyl 2-Acetamido-3-methoxypropionamide]
Tox, TD50 (behavioral toxicity; [13]): >500 milligrams per kilogram

COC[C@@H](NC(C)=O)C(=O)NCc1ccccc1 [(R)—B, (2R)-2-(acetylamino)-N-benzyl-3-methoxypropanamide, reference compound]
Tox, TD50 (behavioral toxicity; time (h) in brackets, Table 2): > 500 mg/kg

COC[C@H](NC(C)=O)C(=O)NCc1ccc(OCc2cccc(F)c2)cc1 [(S)-3, (S)-2-Acetamido-N-(4-(3-fluorobenzyloxy)benzyl)-3-methoxypropanamide]
Tox, TD50 ([3]; time (h) in brackets, Table 2): >300 [0.5]

CC(=O)N[C@@H](C)C(=O)NCc1ccccc1 [(S)-4, reference compound]
MES, ED50 [1, 6]: 550 (460-740) mg/kg | MES, ED50 [4]: 8.0 milligrams per kilogram

COC[C@H](NC(C)=O)C(=O)NCc1ccc(N=[N+]=[N-])cc1 [(S)-5, (S)—N-(4-Azidobenzyl)-2-acetamido-3-methoxypropanamide, reference compound]
Tox, TD50 (behavioral toxicity; time (h) in brackets, Table 2): > 30 mg/kg

CC(=O)N[C@@H](C)C(=O)NCc1ccc(OCc2cccc(F)c2)cc1 [(S)-6, (S)—N-4-(3-Fluorobenzyloxy)benzyl 2-Acetamidopropionamide, reference compound]
ED50 [2, 8]: > 30 mg/kg | Tox, TD50 ([3]; rotorod test, Table 3): >300 [0.5] milligrams per kilogram | Tox, TD50 (behavioral toxicity; behavioral toxicity, Table 3): >30 [0.25 to milligrams per kilogram

C#CCOC[C@H](NC(C)=O)C(=O)NCc1ccccc1 [(S)-7, (S)—N-Benzyl-2-acetamido-3-(prop-2-ynyloxy)propanamide]
Tox, TD50 [3, 14]: >300 mg/kg | Tox, TD50 (behavioral toxicity; time (h) in brackets, Table 2): >30 mg/kg | melting point: 148.5 to 149 °C

C#CCOC[C@H](NC(C)=O)C(=O)NCc1ccc(N=[N+]=[N-])cc1 [(S)-8, (S)—N-(4-Azidobenzyl)-2-acetamido-3-(prop-2-ynyloxy)propanamide]
Tox, TD50 [3, 14]: >300 mg/kg | Tox, TD50 (behavioral toxicity; time (h) in brackets, Table 2): >30 mg/kg | melting point: 135 to 136.5 °C

C#CCOC[C@H](NC(C)=O)C(=O)NCc1ccc(N=C=S)cc1 [(S)-9, (S)—N-(4-Isothiocyanatobenzyl)-2-acetamido-3-(prop-2-ynyloxy)propanamide]
Tox, TD50 [3, 14]: >300 mg/kg | melting point: 157 to 158 °C

COC[C@H](NC(C)=O)C(=O)NCc1ccc(OCc2cccc(F)c2)cc1 [(S)-10, (S)-2-Acetamido-N-(4-(3-fluorobenzyloxy)benzyl)-3-methoxypropanamide]
MES, ED50 [1, 7]: >300 milligrams per kilogram | Tox, TD50 ([3]; rotorod test, Table 3): >300 milligrams per kilogram

COC[C@H](NC(C)=O)C(=O)NCc1ccccc1 [(S)—B, reference compound]
Tox, TD50 ([3]; time (h) in brackets, Table 2): >300 [0.5]

CC(=O)NC(C(=O)NCc1ccc(C)cc1)c1ccccc1 (stereo not shown) [D, reference compound]
ED50 ([1]; mice (ip), text b213): ~300 mg/kg

COC[C@@H](NC(C)=O)C(=O)NCc1ccc([N+](=O)[O-])cc1 [F, reference compound]
ED50 ([1]; mice (ip), text b213): 100 to 300 mg/kg

CC(=O)NCC(=O)NCc1ccc(OCc2cccc(F)c2)cc1 [compound 5, N-4-(3-Fluorobenzyloxy)benzyl 2-Acetamidoacetamide]
ED50 [2, 8]: 31 mg/kg | Tox, TD50 ([3]; rotorod test, Table 3): >300 [0.5 and 4.0] milligrams per kilogram | Tox, TD50 (behavioral toxicity; behavioral toxicity, Table 3): >500 [1.0] milligrams per kilogram

C#CCOCC(NC(C)=O)C(=O)NCc1ccccc1 (stereo not shown) [compound 7]
seizure activity in the 6 Hz seizure model assay (6 Hz seizures): excellent seizure activity

C#CCOCC(NC(C)=O)C(=O)NCc1ccc(N=[N+]=[N-])cc1 (stereo not shown) [compound 8]
seizure activity in the 6 Hz seizure model assay (6 Hz seizures): excellent seizure activity

CCCC(CCC)C(=O)O [valproate]
MES, ED50 [1, 9]: 270 [0.25] | MES, ED50 [2]: 490 [0.5] | MES, ED50 [4]: 270 [0.25] milligrams per kilogram | MES, ED50 [5]: 490 [0.5] milligrams per kilogram

Reference: patent US8933065B2, “N-benzylamide substituted derivatives of 2-(acylamido)acetic acid and 2-(acylamido)propionic acids: potent neurological agents” (The University of North Carolina at Chapel Hill, priority 2008, dated 2015)
